Biological target: T1, HIV protease (Human immunodeficiency virus type 1 group M subtype B, UniProt P03366)
T1 construct: made in house; host or cells: Escherichia coli
Test: Assay for Inhibition of Microbial Expressed Vital Protease (protease expressed in Eschericia coli, peptide substrate, HPLC of products)
Assay type: biochemical
Conditions: peptide substrate Val-Ser-Gln-Asn-(betanapthyl)Ala-Pro-Ile-Val 0.5 mg/mL; 50 mM Na acetate, pH 5.5, 30° C., 1 hour; 15 ul of 0.33 nM protease
Procedure: Assay for Inhibition of Microbial Expressed Vital Protease
Inhibition studies of the reaction of the protease expressed in Eschericia coli with a peptide substrate Val-Ser-Gln-Asn-(betanapthyl)Ala-Pro-Ile-Val, 0.5 mg/mL at the time the reaction is initiated! were in 50 mM Na acetate, p H 5.5, at 30° C. for 1 hour. Various concentrations of inhibitor in 1.0 ul DMSO were added to 25 ul of the peptide solution in water. The reaction is initiated by the addition of 15 ul of 0.33 nM protease (0.11 ng) in a solution of 0.133M Na acetate pH 5.5 and 0.1% bovine serum albumin. The reaction was quenched with 160 ul of 5% phosphoric acid. Products of the reaction were separated by HPLC (VYDAC wide pore 5 cm C-18 reverse phase, acetonitrile gradient, 0.1% phosphoric acid). The extent of inhibition of the reaction was determined from the peak heights of the products.

Compound	IC50
CC(C)(C)CC(=O)C[C@@H](CC1CCCCC1)[C@@H](O)C[C@@H](Cc1ccccc1)C(=O)N[C@H]1c2ccccc2C[C@H]1O [Compound B, N-(2(R)-hydroxy-1(S)-indanyl)-5(R)-cyclohexylmethyl-9,9-dimethyl-4(S)-hydroxy-7-oxo-2(R)-phenylmethyl decaneamide]	0.0115 to 0.058 µM
CCCCC(=O)C[C@@H](CC1CCCCC1)[C@@H](O)C[C@@H](Cc1ccccc1)C(=O)N[C@H]1c2ccccc2C[C@H]1O [Compound A, N-(2(R)-hydroxy-1(S)-indanyl)-5(R)-cyclohexylmethyl-4(S)-hydroxy-7-oxo-2(R) -phenylmethyl undecaneamide]	0.0115 to 0.058 µM

— patent US5502053A, “HIV protease inhibitor compounds” (Merck & Co., Inc., priority 1994, dated 1996)
